The results in this text go back to patent US20230026277A1, “COMPOSITION FOR PREVENTION, ALLEVIATION, OR TREATMENT OF RESPIRATORY DISEASE” (MICROX CO., LTD., priority 2019, published 2023).

Holding throughout (assay type): in vivo
Test [1] has as its system elastin, collagen, and caspase-3 proteins. The test is described as follows: Western blot of elastin, collagen and caspase-3 in chronic obstructive pulmonary disease-induced mice. The conditions noted are these: COPD induced 30 or 60 days; oral 250 μg/kg/day for the last 15 or 30 days; FIGS. 17 and 18. As to the method:
(§1) Eight-week-old female […] mice (Orient Bio Korea Inc., Korea) having no certain pathogen were accommodated in an aseptic laminar-flow cabinet, and bred by supplying a standard solid feed ad libitum. When the following experiment was performed, the mice were made to correspond to 7- to 8-weeks old, and all laboratory animals were managed according to the protocol approved by the Institutional Animal Care and Use Committee of the Chonbuk National University Medical School.
Then, the mixed solution was intranasally administered to the mice of Preparative Example 1 once a day for 30 days or 60 days from the experimental starting date. Here, a group to which only physiological saline was intranasally administered and a group to which a solution obtained by mixing 0.25 μg of LPS with 50 μL of a 10% DMSO solution was administered were used as the controls.
(§2) A tissue was extracted from each of the mice manufactured in Experimental Method 1, and finely ground to a cell level. Thereafter, the cells were lysed in a cell lysis buffer containing a protease inhibitor to obtain a cell lysate. The cell lysate was centrifuged to obtain protein. Then, an equivalent amount of the proteins obtained from the cells were loaded on an SDS-PAGE gel and electrophoresed. […] The PVDF membrane was washed three times with a TBS-T buffer, and visualized and quantified using an ECL Western blotting detection reagent. […]
For orientation: In western blotting, separated proteins are transferred to a membrane and probed.

In test [2] the test system is neutrophils and eosinophils introduced into the airway. The experiment in a line: Inflammatory cells (neutrophils and eosinophils) in bronchoalveolar lavage fluid, Diff-Quik staining, asthma-induced mice. How it is done:
as §1
(§3) Also, on days 21 and 28 from the experimental starting date, the mice were put into a plastic box (Plexiglas (Rohm & Haas, Philadelphia, Pa.) exposure chamber; 24.5 cm×40.5 cm×15.0 cm), and 1.5% ovalbumin was evaporated using an ultrasonic nebulizer (NE-U12; output 0.8 mL/min; Omron, Japan), and injected into the box for 30 minutes so that the mice inhaled the evaporated ovalbumin (secondary challenge).
After the mice were anesthetized, a thin tube was inserted into the airway, and a piston process was repeated using a syringe filled with 0.2 mL of physiological saline to obtain a bronchoalveolar lavage fluid. The bronchoalveolar lavage fluid obtained through this piston process was stored at −70° C. when it was not immediately used in the experiments.
50 μL of the bronchoalveolar lavage fluid obtained in Experimental Method 2 was put on a slide used for the cytospin, and centrifuged for 30 minutes. Thereafter, Diff-Quik staining was performed, and inflammatory cells (neutrophils and eosinophils) were observed using a microscope.
Preparation Example 3 (α,δ-NA-L-G) or α,δ N-acetyl-D-glutamine (α,δ-NA-D-G) was orally administered to the asthma-induced mice of Experimental Method 1 daily from the experimental starting date at a concentration of 50, 100, or 200 μg/kg/day, and the cell numbers of neutrophils and eosinophils introduced into the airway through the method of Experimental Method 3 were measured. The results are shown in A and B of FIG. 3. In this case, the cell numbers were measured at 10 hours (neutrophils) or 48 hours (eosinophils) after a secondary challenge.

The test system of a further test is CK2α protein. The experiment in a line: Western blot of CK2α protein in lung of asthma-induced mice. As to the method: as §3
as §2, with “electrophoresed. The proteins present in the electrophoresed gel were transferred to a PVDF membrane. The PVDF membrane was washed, and added to a blocking buffer in which 5% skim milk was included in a TBS-T buffer, and incubated at room temperature. Then, the PVDF membrane was incubated at room temperature with an antibody diluted 1:1,000 in a TBS-T buffer containing 3% BSA.” for “electrophoresed.”
Specifically, the secondary challenge (ovalbumin injection) was performed according to the method described above in Experimental Method 1, and the lungs were extracted after an hour, and then measured according to the method described above in Experimental Method 7. […] Also, the level of TNF-α corresponding to an NK-κB-dependent cytokine was measured by ELISA according to the method described above in Experimental Method 4. […]
The secondary challenge (ovalbumin injection) was performed according to the method described above in Experimental Method 1, and the lungs were extracted after 1 or 2 hours, and then measured according to the method described above in Experimental Method 7. […]

In another test the test system is asthma-induced mice. The experiment in a line: Lung tissue staining, degree of inflammation (grades 0 to 3), asthma-induced mice. The following applies: for inflammation score (lung tissue, grades 0 to 3): asthma-induced mice, 48 hours after secondary challenge, OVA group score 3, FIG. 6. How it is done: as §1, §3
A tissue was extracted from each of the mice manufactured in Experimental Method 1, and put into a 10% formalin solution, and reacted for 24 hours to prepare a paraffin block. Thereafter, the paraffin block was microtomed into slices with a size of 3 μm, and each of the slices was attached onto a slide, and heamatoxylin-eosin IHE staining was performed. Then, the slices were observed using a microscope. Here, the degree of inflammation was determined by indicating degrees of inflammation around the airway and blood vessels as grades 0 to 3.
0: There are no inflammatory cells;
1: Inflammatory cells are occasionally observed around the airway and blood vessels;
2: Most of the airway and blood vessels are surrounded by approximately 1 to 5 thin bands of inflammatory cells; and
3: Most of the airway and blood vessels are surrounded by thick bands of inflammatory cells (5 or more).
Preparation Example 3 (α,δ-NA-L-G) was orally administered to the asthma-induced mice of Experimental Method 1 at a concentration of 200 or 400 μg/kg/day 30 minutes before a secondary challenge, and the lung tissue was stained using the method described above in Experimental Method 6 48 hours after the secondary challenge, and the inflammation score was measured. The results are shown in A and B of FIG. 6.

Regarding `CC(=O)NC(=O)CC[C@H](NC(C)=O)C(=O)O` [Preparation Example 3, 2,5-diacetamido-5-oxopentanoic acid], in test [1], the “levels of the elastin, collagen, and caspase-3 proteins” value was “decreased to that of the negative control (saline)”. In test [2] (asthma-induced mice, oral daily 50, 100 or 200 μg/kg/day, neutrophils 10 hours, eosinophils 48 hours after secondary challenge, FIG. 3), the “inflow of the neutrophils and eosinophils into the airway” value is “very effectively inhibited”. Besides, the “inhibition of neutrophils, compared to the eosinophils” value in test [2] (asthma-induced mice, oral daily, from a concentration of 50 μg/kg/day, FIG. 3A) was “very effectively inhibited the neutrophils”. Further, the “cell numbers of the neutrophils and eosinophils” value in test [2] (experiment [5-6], together with siRNA specific to MKP-1, FIG. 12) is on record as “increased”. For the same compound, the “cell numbers of neutrophils and eosinophils” value in test [2] (experiment [5-6], without MKP-1 siRNA, FIG. 12) is “decreased”. Besides, the “effect for reducing the level of CK2α” value in the test with CK2α protein (400 μg/kg/day with siRNA specific to MKP-1, FIG. 9) was “not observed”. Further, the “level of the CK2α protein” value with CK2α protein (oral daily 400 μg/kg/day, lungs extracted an hour after secondary challenge, FIG. 9A) is reported as “decreased”. In addition, the “inflammation score (lung tissue, grades 0 to 3)” value was 2 with asthma-induced mice (oral 200 μg/kg/day) and 1 with asthma-induced mice (oral 400 μg/kg/day). The “inflammation-relieving effect (lung tissue)” value with asthma-induced mice (experiment [5-6], together with siRNA specific to MKP-1, FIG. 15) is given as “disappeared”. Further, the “degree of inflammation in the lung tissue” value with asthma-induced mice (experiment [5-6], without MKP-1 siRNA, FIG. 15) is reported as “inhibited”.
